Publication PMC10746708, “A small molecule iCDM-34 identified by in silico screening suppresses HBV DNA through activation of aryl hydrocarbon receptor” (Cell Death Discovery, 2023)

Experiments:
[1] = test system: phospho-SAMHD1; experiment: Western blotting of phospho-SAMHD1 in HepG2-NTCP-C4 cells; format: cell-based, human; conditions: 30 μM, 1 day
Experimental: HepG2-NTCP-C4 cells were treated with 30 μM iCDM-17 and iCDM-34 for 1 day. The cells were lyzed with 20 mM TrisHCl pH 7.5 containing 100 mM NaCl, 10 mM EDTA, 1% TritonX-100, 1% Sodium deoxycholate, PhosSTOP (Roche), Complete EDTA free. The lysates were sonicated 30 s and mixed for 1 h with rotation at 4 °C. The lysates were centrifuged at 15,000 rpm for 10 min at 4 °C. The supernatants were analyzed by Western blotting using anti-phospho-SAMHD1 (Thr592) (Cell signaling technology, 89930, 1/1000), anti-SAMHD1 (Cell signaling technology, 49158, 1/1000), and β−actin (Santa Cruz, 1/1000).

[2] = Liver microsomal stability, human; format: in vitro ADME; conditions: human liver microsomes
Experimental: (§1) Liver microsome stability studies (human, mouse, and rat) were performed at Sumika Chemical Analysis Service (Osaka, Japan) by following an established procedure. A mixture of 1 μM of substrate, 0.5 mg protein/mL of microsomes, and […] β-NADPH was incubated for 30 or 60 min and % remaining substrate was quantitatively measured by LC-MS/MS.

[3] = test system: HBV genotype C; experiment: Anti-HBV activity in HBV-infected PXB cells (HBV DNA by qPCR); format: cell-based; conditions: Hepatitis B virus, 168 h; HBV genotype C-infected PXB cells, 0.03–100 µM for 7 days, qPCR; read-out: half maximal inhibitory concentration, cellular HBV DNA
Experimental: PXB cells (primary cultured human hepatocytes) were purchased from PhoenixBio (Higashi-Hiroshima, Japan) and cultured on collagen type I-coated 96- or 24-well plates in hepatocyte clonal growth medium at 37 °C and 5 % CO2 as previously described. RealTime-Glo MT Cell Viability Assay (Promega) and XTT assay were performed according to a previously established protocol.
PXB cells were plated on 96-well plate and infected with three genome equivalents per cell of HBV C_AT [33], and the medium was changed every 3 or 4 days. […] After treatment with these compounds, cellular DNA, medium DNA, and total RNA were automatically purified as per our previously established protocol. RNA purification of total RNA from cultured cells in the 24-well plate was performed using the RNeasy Mini Kit (Qiagen, Germantown, MD, USA) according to the manufacturer’s instructions.
HBV DNA copy numbers were determined using TaqMan Gene Expression Master Mix (Thermo Fisher Scientific) or Probe qPCR Mix (Takara Bio), specific primers, and probes in a qPCR system (Light Cycler 96 System, Roche, Basel, Switzerland or CFX96 Touch Real-Time PCR Detection System, Bio-Rad Laboratories, Hercules, CA, USA). The specific primers and probe used for detection of HBV DNA were as follows: forward primer: 5′-[…]-3′, reverse primer: 5′-[…]-3′, and probe: 5′-[FAM] […][TAM]-3′.

[4] = Liver microsomal stability, mouse; format: in vitro ADME; conditions: mouse liver microsomes
Experimental: as §1

[5] = Liver microsomal stability, rat; format: in vitro ADME; conditions: rat liver microsomes
Experimental: as §1

[6] = test system: JAK/STAT signaling; experiment: Western blotting of phospho-STAT1, STAT2, STAT3 in HCV replicon cells; format: cell-based, human; conditions: 30 μM, 24 h
Experimental: HCV replicon cells were treated with 30 μM CDM-3008, iCDM-17, and iCDM-34 for 1 day. The cells were lyzed with 1 x SDS sample buffer containing PhosStop, Complete EDTA free, and 1 mM EDTA. After sonication for 30 s, the lysates were centrifuged at 12,000g for 10 min at 4 °C, and then the supernatants were collected. After reducing the 20 μg of supernatants with 50 mM DTT at 98 °C for 2 min, the samples were separated by SDS-PAGE. STAT1, STAT2, STAT3, pSTAT1, pSTAT2, and pSTAT3 were detected by Western blotting using anti-STAT1 (9175, 1/1000), STAT2 (72604, 1/1000), STAT3 (12640, 1/1000), pSTAT1 (Y701) (7649, 1/1000), pSTAT2 (Y690) (88410, 1/1000), and pSTAT3 (Y705) (9145, 1/1000) antibodies (Cell signaling technology, Massachusetts, USA).

[7] = 1 μM substrate, 0.5 mg protein/mL, 30 min
[8] = 1 μM substrate, 0.5 mg protein/mL, 60 min

COc1ccc(CNC(=O)c2nc(-c3ccc4c(c3)OCO4)no2)cc1OC [iCDM-17]
phospho-SAMHD1 levels [1]: lower than pre-treatment levels
half-life at 1 μM [2]: 48.6 min
remaining at 0.5 h, 1 μM [2, 7]: 61.4 ± 0.9%
remaining at 1 h, 1 μM [2, 8]: 42.3 ± 0.1%
IC50 [3]: 56.6 µM
half-life at 1 μM [4]: 34.8 min
remaining at 0.5 h, 1 μM [4, 7]: 45.8 ± 0.6%
remaining at 1 h, 1 μM [4, 8]: 22.6%
half-life at 1 μM [5]: 26.7 min
remaining at 0.5 h, 1 μM [5, 7]: 32 ± 0.2%
remaining at 1 h, 1 μM [5, 8]: 11.6 ± 0.2%
phosphorylation of STAT1, STAT2, and STAT3 [6]: not induced
